Experimental data published in US20240158446A1, “CYCLIC COMPOUND HAVING SELECTIVE INHIBITORY ACTION ON KRAS OVER HRAS AND NRAS” (CHUGAI SEIYAKU KABUSHIKI KAISHA, priority 2021, published 2024).
Where two headings read alike, the source gives them in different places.

Legend:
[1] = target: GDP-bound NRAS wild-type protein (Homo sapiens, UniProt P01111); experiment: Binding to NRAS by surface plasmon resonance (SPR), Single Cycle Kinetics; conditions: for NRAS/KRAS (ratio of KD value for NRAS to KD value for KRAS): SPR, GDP-bound NRAS wild-type protein vs GDP-bound KRAS wild-type protein; for NRAS/KRAS (ratio of KD value with respect to GDP-bound NRAS wild-type protein to KD value with respect to KRAS): SPR KD ratio NRAS/KRAS, class symbols
[2] = test system: human lung cancer strain NCI-H441;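 note: cell proliferation inhibition after four days measured by CellTiter-Glo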
[3] = target: GDP-bound HRAS wild-type protein (Homo sapiens, UniProt P01112); experiment: Binding to HRAS by surface plasmon resonance (SPR), Single Cycle Kinetics; conditions: for HRAS/KRAS (ratio of KD value for HRAS to KD value for KRAS): SPR, GDP-bound HRAS wild-type protein vs GDP-bound KRAS wild-type protein; for HRAS/KRAS (ratio of KD value with respect to GDP-bound HRAS wild-type protein to KD value with respect to KRAS): SPR KD ratio HRAS/KRAS, class symbols
[4] = read-out: NCI-H441 IC50, NCI-H441 cells, four days, CellTiter-Glo

Chain of GDP-bound HRAS wild-type protein (P01112 whole entry): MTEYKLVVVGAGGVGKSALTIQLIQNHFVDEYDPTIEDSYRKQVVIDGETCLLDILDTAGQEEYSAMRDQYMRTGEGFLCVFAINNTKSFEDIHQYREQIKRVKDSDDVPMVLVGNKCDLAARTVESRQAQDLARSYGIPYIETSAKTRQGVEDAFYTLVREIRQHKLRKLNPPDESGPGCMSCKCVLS
Chain of GDP-bound NRAS wild-type protein (P01111 whole entry): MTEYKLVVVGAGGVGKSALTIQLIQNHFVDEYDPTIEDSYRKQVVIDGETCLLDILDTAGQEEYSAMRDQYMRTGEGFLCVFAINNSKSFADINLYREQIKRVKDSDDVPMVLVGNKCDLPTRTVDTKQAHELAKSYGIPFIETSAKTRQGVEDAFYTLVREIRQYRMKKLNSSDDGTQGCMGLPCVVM

| SMILES | NRAS/KRAS (ratio of KD value for NRAS to KD value for KRAS) [1] | IC50 [2] | HRAS/KRAS (ratio of KD value for HRAS to KD value for KRAS) [3] | NRAS/KRAS (ratio of KD value with respect to GDP-bound NRAS wild-type protein to KD value with respect to KRAS) [1] | HRAS/KRAS (ratio of KD value with respect to GDP-bound HRAS wild-type protein to KD value with respect to KRAS) [3] | IC50 [2, 4] |
| --- | --- | --- | --- | --- | --- | --- |
| CCCOC[C@H]1C(=O)N[C@@H]([C@@H](C)CC)C(=O)N(C)CC(=O)N(C)[C@H]2C/C=C\CCN(C2=O)[C@@H](Cc2ccc(C)cc2)C(=O)N(C)CC(=O)N[C@@H](CCc2cc(F)c(C(F)(F)F)c(F)c2)C(=O)N2C[C@H](CCC)C[C@H]2C(=O)NC2(CCC2)C(=O)N(C)[C@@H](C2CCCC2)C(=O)N(C)[C@H](C(=O)N(C)C)CC(=O)N1C [PP2232] | A (a compound having 10 or more and less than 20 is denoted as A) | 18.7 nM | A (a compound having 10 or more and less than 20 is denoted as A) | – | – | – |
| CCCOC[C@H]1C(=O)N[C@@H]([C@@H](C)CC)C(=O)N(C)CC(=O)N(C)[C@H]2C/C=C\CCN(C2=O)[C@@H](Cc2ccc(C)cc2)C(=O)N(C)CC(=O)N[C@@H](CCc2ccc(C(F)(F)F)c(Cl)c2)C(=O)N2C[C@H](CC)C[C@H]2C(=O)NC2(CC(C)(C)C2)C(=O)N(C)[C@@H](C2CCCC2)C(=O)N(C)[C@H](C(=O)N(C)C)CC(=O)N1C [PP2235] | A (a compound having 10 or more and less than 20 is denoted as A) | 22.1 nM | A (a compound having 10 or more and less than 20 is denoted as A) | – | – | – |
| CCC[C@H]1C(=O)N[C@@H]([C@@H](C)CC)C(=O)N(C)CC(=O)N(C)[C@H]2C/C=C\CCN(C2=O)[C@@H](CC2CCCCC2)C(=O)N(C)CC(=O)N[C@@H](CCc2ccc(C(F)(F)F)c(OC)c2)C(=O)N2C[C@H](OCC)C[C@H]2C(=O)N(C)C2(CCC2)C(=O)N(C)[C@@H](C(CC)CC)C(=O)N(C)[C@H](C(=O)N(C)C)CC(=O)N1C [PP2333] | A (a compound having 10 or more and less than 20 is denoted as A) | 44.7 nM | A (a compound having 10 or more and less than 20 is denoted as A) | – | – | – |
| CCO[C@@H]1C[C@H]2C(=O)NC3(CCC3)C(=O)N(C)[C@@H](C3CCCC3)C(=O)N(C)[C@H](C(=O)N(C)C)CC(=O)N(C)[C@@H](CC3CCCC3)C(=O)N[C@@H]([C@@H](C)CC)C(=O)N(C)CC(=O)N(C)[C@H]3C/C=C\CCN(C3=O)[C@@H](Cc3ccc(C)cc3)C(=O)N(C)CC(=O)N[C@@H](CCc3ccc(C(F)(F)F)c(C4CC4)c3)C(=O)N2C1 [PP2681] | – | 29.1 nM | – | A (a compound having 10 or more and less than 20 is denoted as A) | A (a compound having 10 or more and less than 20 is denoted as A) | – |
| CCO[C@@H]1C[C@H]2C(=O)NC3(CC(C)(C)C3)C(=O)N(C)[C@@H](C3CCCC3)C(=O)N(C)[C@H](C(=O)N(C)C)CC(=O)N(C)[C@@H](CC(C)C)C(=O)N[C@@H]([C@@H](C)CC)C(=O)N(C)CC(=O)N(C)[C@H]3C/C=C\CCN(C3=O)[C@@H](Cc3ccc(C)c(F)c3)C(=O)N(C)CC(=O)N[C@@H](CCc3ccc(C(F)(F)F)c(OC)c3)C(=O)N2C1 [PP2689] | – | – | – | A (a compound having 10 or more and less than 20 is denoted as A) | B (a compound having 3 or more and less than 10 is denoted as B) | 6.2 nM |
| CCO[C@@H]1C[C@H]2C(=O)NC3(CC(C)(C)C3)C(=O)N(C)[C@@H](C3CCCC3)C(=O)N(C)[C@H](C(=O)N(C)C)CC(=O)N(C)[C@@H](CC(C)C)C(=O)N[C@@H]([C@@H](C)CC)C(=O)N(C)CC(=O)N(C)[C@H]3C/C=C\CCN(C3=O)[C@@H](Cc3ccc(C(C)(F)F)cc3)C(=O)N(C)CC(=O)N[C@@H](CCc3ccc(C(F)(F)F)c(OC)c3)C(=O)N2C1 [PP2690] | – | – | – | AA (a compound having 20 or more is denoted as AA) | A (a compound having 10 or more and less than 20 is denoted as A) | 3 nM |
| CCC[C@H]1C(=O)N[C@@H]([C@@H](C)CC)C(=O)N(C)CC(=O)N(C)[C@H]2C/C=C\CCN(C2=O)[C@@H](Cc2ccc(C(F)(F)F)cc2)C(=O)N(C)CC(=O)N[C@@H](CCc2cc(F)c(C(F)(F)F)c(F)c2)C(=O)N2C[C@H](OCC)C[C@H]2C(=O)NC2(CC(C)(C)C2)C(=O)N(C)[C@@H](CC(C)(C)C)C(=O)N(C)C(C(=O)N(C)C)CC(=O)N1C (stereo partly drawn) [PP2730] | – | 5.8 nM | – | A (a compound having 10 or more and less than 20 is denoted as A) | A (a compound having 10 or more and less than 20 is denoted as A) | – |
| CCCC[C@H]1C(=O)N[C@@H]([C@@H](C)CC)C(=O)N(C)CC(=O)N(C)[C@H]2C/C=C\CCN(C2=O)[C@@H](Cc2ccc(C)cc2)C(=O)N(C)CC(=O)N[C@@H](CCc2cc(F)c(C(F)(F)F)c(F)c2)C(=O)N2C[C@H](OCC)C[C@H]2C(=O)NC2(CC(C)(C)C2)C(=O)N(C)[C@@H](C2CCCC2)C(=O)N(C)[C@H](C(=O)N(C)C)CC(=O)N1C [PP2800] | – | 7.9 nM | – | A (a compound having 10 or more and less than 20 is denoted as A) | A (a compound having 10 or more and less than 20 is denoted as A) | – |
| CCC(CC)[C@H]1C(=O)N(C)[C@H](C(=O)N(C)C)CC(=O)N(C)[C@@H](COC)C(=O)N[C@@H]([C@@H](C)CC)C(=O)N(C)CC(=O)N(C)[C@H]2C/C=C\CCN(C2=O)[C@@H](Cc2ccc(C)cc2)C(=O)N(C)CC(=O)N[C@@H](CCc2ccc(Cl)c(Cl)c2)C(=O)N2C[C@H](OC3CCC3)C[C@H]2C(=O)N(C)C2(CC(C)(C)C2)C(=O)N1C [PP2816] | – | 22.8 nM | – | AA (a compound having 20 or more is denoted as AA) | A (a compound having 10 or more and less than 20 is denoted as A) | – |
| CCC(CC)[C@H]1C(=O)N(C)[C@H](C(=O)N(C)C)CC(=O)N(C)[C@@H](COC)C(=O)N[C@@H]([C@@H](C)CC)C(=O)N(C)CC(=O)N(C)[C@H]2C/C=C\CCN(C2=O)[C@@H](Cc2ccc(C)cc2)C(=O)N(C)CC(=O)N[C@@H](CCc2ccc(Cl)c(Cl)c2)C(=O)N2CC3(CC3)C[C@H]2C(=O)N(C)C2(CC(C)(C)C2)C(=O)N1C [PP2820] | – | 62.4 nM | – | AA (a compound having 20 or more is denoted as AA) | A (a compound having 10 or more and less than 20 is denoted as A) | – |
| CCC[C@H]1C(=O)N[C@@H]([C@@H](C)CC)C(=O)N(C)CC(=O)N(C)[C@H]2C/C=C\CCN(C2=O)[C@@H](Cc2ccc(C)cc2)C(=O)N(C)CC(=O)N[C@@H](CCc2ccc3ccn(C)c3c2)C(=O)N2C[C@H](OCC)C[C@H]2C(=O)NC2(CC(C)(C)C2)C(=O)N(C)[C@@H](C(CC)CC)C(=O)N(C)[C@H](C(=O)N(C)C)CC(=O)N1C [PP2914] | – | 311 nM | – | AA (a compound having 20 or more is denoted as AA) | A (a compound having 10 or more and less than 20 is denoted as A) | – |
| CCC[C@H]1C(=O)N[C@@H]([C@@H](C)CC)C(=O)N(C)CC(=O)N(C)[C@H]2C/C=C\CCN(C2=O)[C@@H](Cc2ccc(C)cc2)C(=O)N(C)CC(=O)N[C@@H](CCc2ccc(C(F)(F)F)c(OC)c2)C(=O)N2C[C@H](OCC)C[C@H]2C(=O)NC2(CC(C)(C)C2)C(=O)N(C)[C@@H](CC(F)(F)F)C(=O)N(C)[C@H](C(=O)N(C)C)CC(=O)N1C [PP3007] | A (a compound having 10 or more and less than 20 is denoted as A) | 63.4 nM | A (a compound having 10 or more and less than 20 is denoted as A) | – | – | – |
| CCC[C@H]1C(=O)N[C@@H]([C@@H](C)CC)C(=O)N(C)CC(=O)N(C)[C@H]2C/C=C\CCN(C2=O)[C@@H](Cc2ccc(C)cc2)C(=O)N(C)CC(=O)N[C@@H](CCc2ccc(C(F)(F)F)c(OC)c2)C(=O)N2CC3(CC3)C[C@H]2C(=O)NC2(CC(C)(C)C2)C(=O)N(C)[C@@H]([C@@H](C)CC)C(=O)N(C)[C@H](C(=O)N(C)C)CC(=O)N1C [PP3011] | A (a compound having 10 or more and less than 20 is denoted as A) | 31.1 nM | B (a compound having 3 or more and less than 10 is denoted as B) | – | – | – |
| CCC[C@H]1C(=O)N[C@@H]([C@@H](C)CC)C(=O)N(C)CC(=O)N(C)[C@H]2C/C=C\CCN(C2=O)[C@@H](Cc2ccc(C)cc2)C(=O)N(C)CC(=O)N[C@@H](CCc2ccc(C(F)(F)F)c(OC)c2)C(=O)N2CC3(CC3)C[C@H]2C(=O)NC2(CC(C)(C)C2)C(=O)N(C)[C@@H](CC(C)C)C(=O)N(C)[C@H](C(=O)N(C)C)CC(=O)N1C [PP3013] | AA (a compound having 20 or more is denoted as AA) | 29.7 nM | B (a compound having 3 or more and less than 10 is denoted as B) | – | – | – |
